Laboratory results: PubChem BioAssay (NCI)
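Interpolation was linear, between the two tested concentrations surrounding the appropriate level; five concentrations were tested over 48 hours in 96-well plates. The concentration for full growth arrest is given as TGI.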 Calls of active or inactive are those of the source. No stated cut-off is given here; in the data, active means GI50 below about 0.43 µM; inactive means the rest.

Columns and labels:
Assay in all cases: growth of human tumour cells (NCI), 48 h
NCI-H522 lung = test system: NCI-H522 lung
CAKI-1 renal = test system: CAKI-1 renal
M19-MEL melanoma = test system: M19-MEL melanoma
SNB-75 CNS = test system: SNB-75 CNS
UO-31 renal = test system: UO-31 renal
MALME-3M melanoma = test system: MALME-3M melanoma
SNB-78 CNS = test system: SNB-78 CNS
IGROV1 ovarian = test system: IGROV1 ovarian
NCI-H226 lung = test system: NCI-H226 lung
LXFL 529 NSCLC = test system: LXFL 529 NSCLC
KM20L2 colon = test system: KM20L2 colon
SF-539 CNS = test system: SF-539 CNS
OVCAR-5 ovarian = test system: OVCAR-5 ovarian
SF-268 CNS = test system: SF-268 CNS
HCT-116 colon = test system: HCT-116 colon
SW-620 colon = test system: SW-620 colon
XF 498 CNS = test system: XF 498 CNS
SK-MEL-5 melanoma = test system: SK-MEL-5 melanoma
HCC-2998 colon = test system: HCC-2998 colon
NCI-H460 lung = test system: NCI-H460 lung
SK-MEL-28 melanoma = test system: SK-MEL-28 melanoma
LOX IMVI melanoma = test system: LOX IMVI melanoma
OVCAR-4 ovarian = test system: OVCAR-4 ovarian
HOP-92 NSCLC = test system: HOP-92 NSCLC
786-0 renal = test system: 786-0 renal
UACC-62 melanoma = test system: UACC-62 melanoma
RXF 393 renal = test system: RXF 393 renal
SR leukemia = test system: SR leukemia
SF-295 CNS = test system: SF-295 CNS
DMS 273 small cell lung = test system: DMS 273 small cell lung
SNB-19 CNS = test system: SNB-19 CNS
K-562 leukemia = test system: K-562 leukemia
MOLT-4 leukemia = test system: MOLT-4 leukemia
NCI-H23 lung = test system: NCI-H23 lung
DLD-1 colon = test system: DLD-1 colon
OVCAR-8 ovarian = test system: OVCAR-8 ovarian
SN12C renal = test system: SN12C renal
TK-10 renal = test system: TK-10 renal
SK-OV-3 ovarian = test system: SK-OV-3 ovarian
HT29 colon = test system: HT29 colon
SK-MEL-2 melanoma = test system: SK-MEL-2 melanoma
COLO 205 colon = test system: COLO 205 colon
CCRF-CEM leukemia = test system: CCRF-CEM leukemia
M14 melanoma = test system: M14 melanoma
A549 NSCLC = test system: A549 NSCLC
KM12 colon = test system: KM12 colon
EKVX NSCLC = test system: EKVX NSCLC
OVCAR-3 ovarian = test system: OVCAR-3 ovarian
HL-60(TB) leukemia = test system: HL-60(TB) leukemia
RPMI-8226 leukemia = test system: RPMI-8226 leukemia
DMS 114 small cell lung = test system: DMS 114 small cell lung
ACHN renal = test system: ACHN renal
UACC-257 melanoma = test system: UACC-257 melanoma
U251 CNS = test system: U251 CNS
HCT-15 colon = test system: HCT-15 colon
HOP-62 NSCLC = test system: HOP-62 NSCLC
A498 renal = test system: A498 renal

COc1ccc(/C=c2/sc3n(c2=O)NC2(CCCCC2)NN=3)cc1
TGI (NCI-H522 lung): > 100 µM | TGI (CAKI-1 renal): > 100 µM | TGI (M19-MEL melanoma): > 100 µM | TGI (SNB-75 CNS): > 100 µM | TGI (UO-31 renal): > 100 µM | TGI (MALME-3M melanoma): > 100 µM | TGI (SNB-78 CNS): > 100 µM | TGI (IGROV1 ovarian): > 100 µM | TGI (NCI-H226 lung): > 100 µM | TGI (LXFL 529 NSCLC): > 100 µM | TGI (KM20L2 colon): > 100 µM | TGI (SF-539 CNS): > 100 µM | TGI (OVCAR-5 ovarian): > 100 µM | TGI (SF-268 CNS): > 100 µM | TGI (HCT-116 colon): > 100 µM | TGI (SW-620 colon): > 100 µM | TGI (XF 498 CNS): > 100 µM | TGI (SK-MEL-5 melanoma): > 100 µM | TGI (HCC-2998 colon): > 100 µM | TGI (NCI-H460 lung): > 100 µM | TGI (SK-MEL-28 melanoma): > 100 µM | TGI (LOX IMVI melanoma): > 100 µM | TGI (OVCAR-4 ovarian): > 100 µM | TGI (HOP-92 NSCLC): > 100 µM | TGI (786-0 renal): > 100 µM | TGI (UACC-62 melanoma): > 100 µM | TGI (RXF 393 renal): > 100 µM | TGI (SR leukemia): > 100 µM | TGI (SF-295 CNS): > 100 µM | TGI (DMS 273 small cell lung): > 100 µM | TGI (SNB-19 CNS): > 100 µM | TGI (K-562 leukemia): > 100 µM | TGI (MOLT-4 leukemia): > 100 µM | TGI (NCI-H23 lung): > 100 µM | TGI (DLD-1 colon): > 100 µM | TGI (OVCAR-8 ovarian): > 100 µM | TGI (SN12C renal): > 100 µM | TGI (TK-10 renal): > 100 µM | TGI (SK-OV-3 ovarian): > 100 µM | TGI (HT29 colon): > 100 µM | TGI (SK-MEL-2 melanoma): > 100 µM | TGI (COLO 205 colon): > 100 µM | TGI (CCRF-CEM leukemia): > 100 µM | TGI (M14 melanoma): > 100 µM | TGI (A549 NSCLC): > 100 µM | TGI (KM12 colon): > 100 µM | TGI (EKVX NSCLC): > 100 µM | TGI (OVCAR-3 ovarian): > 100 µM

C[C@@]1(C(=O)c2ccccc2)N(c2ccccc2)[C@@]1(C)C(=O)c1ccccc1
outcome (NCI-H522 lung): inactive | outcome (CAKI-1 renal): inactive | outcome (SNB-75 CNS): inactive | outcome (UO-31 renal): inactive | outcome (HL-60(TB) leukemia): inactive | outcome (MALME-3M melanoma): inactive | outcome (SNB-78 CNS): inactive | outcome (RPMI-8226 leukemia): inactive | outcome (IGROV1 ovarian): inactive | outcome (NCI-H226 lung): inactive | outcome (LXFL 529 NSCLC): inactive | outcome (KM20L2 colon): inactive | outcome (SF-539 CNS): inactive | outcome (OVCAR-5 ovarian): inactive | outcome (SF-268 CNS): inactive | outcome (SW-620 colon): inactive | outcome (XF 498 CNS): inactive | outcome (NCI-H460 lung): inactive | outcome (DMS 114 small cell lung): inactive | outcome (LOX IMVI melanoma): inactive | outcome (ACHN renal): inactive | outcome (HOP-92 NSCLC): inactive | outcome (786-0 renal): inactive | outcome (UACC-62 melanoma): inactive | outcome (UACC-257 melanoma): inactive | outcome (RXF 393 renal): inactive | outcome (U251 CNS): inactive | outcome (SR leukemia): inactive | outcome (SF-295 CNS): inactive | outcome (DMS 273 small cell lung): inactive | outcome (SNB-19 CNS): inactive | outcome (K-562 leukemia): inactive | outcome (MOLT-4 leukemia): inactive | outcome (NCI-H23 lung): inactive | outcome (HCT-15 colon): inactive | outcome (DLD-1 colon): inactive | outcome (OVCAR-8 ovarian): inactive | outcome (SN12C renal): inactive | outcome (TK-10 renal): inactive | outcome (SK-OV-3 ovarian): inactive | outcome (HT29 colon): inactive | outcome (SK-MEL-2 melanoma): inactive | outcome (COLO 205 colon): inactive | outcome (CCRF-CEM leukemia): inactive | outcome (M14 melanoma): inactive | outcome (A549 NSCLC): inactive | outcome (KM12 colon): inactive | outcome (EKVX NSCLC): inactive | outcome (OVCAR-3 ovarian): inactive | outcome (HOP-62 NSCLC): inactive

O=C1c2cccc(O)c2C(=O)c2cccc(O)c21
TGI (NCI-H522 lung): > 100 µM | TGI (CAKI-1 renal): > 100 µM | TGI (M19-MEL melanoma): > 100 µM | TGI (SNB-75 CNS): > 100 µM | TGI (UO-31 renal): > 100 µM | TGI (SNB-78 CNS): > 100 µM | TGI (RPMI-8226 leukemia): > 100 µM | TGI (IGROV1 ovarian): > 100 µM | TGI (NCI-H226 lung): > 100 µM | TGI (LXFL 529 NSCLC): > 100 µM | TGI (SF-539 CNS): > 100 µM | TGI (OVCAR-5 ovarian): > 100 µM | TGI (SF-268 CNS): > 100 µM | TGI (HCT-116 colon): > 100 µM | TGI (SW-620 colon): > 100 µM | TGI (XF 498 CNS): > 100 µM | TGI (HCC-2998 colon): > 100 µM | TGI (NCI-H460 lung): > 100 µM | TGI (LOX IMVI melanoma): > 100 µM | TGI (OVCAR-4 ovarian): > 100 µM | TGI (ACHN renal): > 100 µM | TGI (HOP-92 NSCLC): > 100 µM | TGI (A498 renal): > 100 µM | TGI (786-0 renal): > 100 µM | TGI (UACC-62 melanoma): > 100 µM | TGI (UACC-257 melanoma): > 100 µM | TGI (RXF 393 renal): > 100 µM | TGI (U251 CNS): > 100 µM | TGI (SF-295 CNS): > 100 µM | TGI (DMS 273 small cell lung): > 100 µM | TGI (SNB-19 CNS): > 100 µM | TGI (K-562 leukemia): > 100 µM | TGI (MOLT-4 leukemia): > 100 µM | TGI (NCI-H23 lung): > 100 µM | TGI (HCT-15 colon): > 100 µM | TGI (DLD-1 colon): > 100 µM | TGI (OVCAR-8 ovarian): > 100 µM | TGI (SN12C renal): > 100 µM | TGI (TK-10 renal): > 100 µM | TGI (HT29 colon): > 100 µM | TGI (SK-MEL-2 melanoma): > 100 µM | TGI (COLO 205 colon): > 100 µM | TGI (CCRF-CEM leukemia): > 100 µM | TGI (M14 melanoma): > 100 µM | TGI (A549 NSCLC): > 100 µM | TGI (KM12 colon): > 100 µM | TGI (EKVX NSCLC): > 100 µM | TGI (OVCAR-3 ovarian): > 100 µM | TGI (HOP-62 NSCLC): > 100 µM
